# Where a name gives a salt, the structure may show the parent alone.
# Test system: PMS1
# Assay: Mini-Gene Reporter Assay—PMS1 (firefly luciferase mini-gene reporter transiently transfected into HEK293 cells)
# Format: cell-based
# Conditions: Homo sapiens; at 5 uM; mini-gene firefly luciferase reporter in HEK293 cells; read-out: PMS1 % Effect at 5 uM
# Text: Example 76. Mini-Gene Reporter Assay—PMS1
# Mini-gene reporter constructs for each target site can be constructed by first PCR amplifying the region-of-interest including the sequence of the alternatively skipped, sequences of the immediate upstream and downstream introns, and sequences of the immediate upstream and downstream exons. Then the 3′ end of the amplified sequence can be ligated to a firefly luciferase reporter gene and cloned into the pcDNA3.1 vector backbone. The final reporter construct can be transiently transfected into HEK293 cells using Lipofectamine 3000 transfection reagents. Compounds that can induce the inclusion of the skipped exon in the reporter construct would increase the reporter firefly luciferase activity.
# Test compounds may be diluted in duplicates and dispensed into an assay plate. Transient mini-gene reporter cell line stock is resuspended and dispensed into the assay plate. Assay plates are then centrifuged and incubated. A luciferase reagent (e.g. ONE-Glo firefly luciferase reagent from Promega®) may be added to the assay plate and the luminescence (RLU) signals recorded. EC50 values may be determined by curve fitting in Levenberg-Marquardt algorithm.
# In Table D below, A indicates a IC50 (μM)<1 μM, B indicates a IC50 (μM) 1 μM to <10 μM, and C indicates a IC50 (μM) 10 μM to <50 μM. In Table D below, A indicates a >75% Effect at 5 μM μM. B indicates a 50 to <75% Effect at 5 μM μM, and C indicates a <50% Effect at 5 μM.
row,SMILES,activation at 5 µM [%]
1,"COc1cc2nc(C)cn2cc1C(=O)Nc1ccc(N2CCC3NCCCC3C2)cc1F (stereo not shown) [Compound 131, N-(2-fluoro-4-(octahydro-1,6-naphthyridin-6(2H)-yl)phenyl)-7-methoxy-2-methylimidazo[1,2-a]pyridine-6-carboxamide]",50 to 75
2,"COc1cc2nc(C)cn2cc1C(=O)Nc1ccc(N2CC(CO)C3(CNC3)C2)cc1F (stereo not shown) [Compound 134, N-(2-fluoro-4-(8-(hydroxymethyl)-2,6-diazaspiro[3.4]octan-6-yl)phenyl)-7-methoxy-2-methylimidazo[1,2-a]pyridine-6-carboxamide]",< 50
3,"COc1cc2nc(C)cn2cc1C(=O)Nc1ccc(N2CCC3(CCNC3)CC2)cc1F [Compound 135, N-(2-fluoro-4-(2,8-diazaspiro[4.5]decan-8-yl)phenyl)-7-methoxy-2-methylimidazo[1,2-a]pyridine-6-carboxamide]",< 50
4,"COc1cc2nc(C)cn2cc1C(=O)Nc1ccc(N2CCC(NCC3CC3)CC2)cc1F [Compound 136, N-(4-(4-((cyclopropylmethyl)amino)piperidin-1-yl)-2-fluorophenyl)-7-methoxy-2-methylimidazo[1,2-a]pyridine-6-carboxamide]",50 to 75
5,"COCCNC1CCN(c2ccc(NC(=O)c3cn4cc(C)nc4cc3OC)c(F)c2)CC1 [Compound 137, N-(2-fluoro-4-(4-((2-methoxyethyl)amino)piperidin-1-yl)phenyl)-7-methoxy-2-methylimidazo[1,2-a]pyridine-6-carboxamide]",50 to 75
6,"COc1cc2nc(C)cn2cc1C(=O)Nc1ccc(N2CC3CCCC(C2)NC3)cc1F (stereo not shown) [Compound 138, N-(4-(3,9-diazabicyclo[3.3.2]decan-3-yl)-2-fluorophenyl)-7-methoxy-2-methylimidazo[1,2-a]pyridine-6-carboxamide]",> 75
7,"COc1cc2nc(C)cn2cc1C(=O)Nc1ccc(N2CCNCC3(CC3)C2)cc1F [Compound 139, N-(2-fluoro-4-(5,8-diazaspiro[2.6]nonan-5-yl)phenyl)-7-methoxy-2-methylimidazo[1,2-a]pyridine-6-carboxamide]",> 75
8,"COc1cc2nc(C)cn2cc1C(=O)Nc1ccc(N2C3CCCC2CNC3)cc1F [Compound 140, N-(4-(3,9-diazabicyclo[3.3.1]nonan-9-yl)-2-fluorophenyl)-7-methoxy-2-methylimidazo[1,2-a]pyridine-6-carboxamide]",> 75
9,"COc1cc2nc(C)cn2cc1C(=O)Nc1ccc(N2CCCNC(CO)C2)cc1F (stereo not shown) [Compound 141, N-(2-fluoro-4-(3-(hydroxymethyl)-1,4-diazepan-1-yl)phenyl)-7-methoxy-2-methylimidazo[1,2-a]pyridine-6-carboxamide]",50 to 75
10,"COc1cc2nc(C)cn2cc1C(=O)Nc1ccc(N2CCN[C@@H](C(C)C)C2)cc1F [Compound 142, (S)-N-(2-fluoro-4-(3-isopropylpiperazin-1-yl)phenyl)-7-methoxy-2-methylimidazo[1,2-a]pyridine-6-carboxamide]",> 75
11,"COc1cc2nc(C)cn2cc1C(=O)Nc1ccc(N2CCC3(CCN3)CC2)cc1F [Compound 143, N-(2-fluoro-4-(1,7-diazaspiro[3.5]nonan-7-yl)phenyl)-7-methoxy-2-methylimidazo[1,2-a]pyridine-6-carboxamide]",> 75
12,"COCC1CNCCN1c1ccc(NC(=O)c2cn3cc(C)nc3cc2OC)c(F)c1 (stereo not shown) [Compound 144, N-(2-fluoro-4-(2-(methoxymethyl)piperazin-1-yl)phenyl)-7-methoxy-2-methylimidazo[1,2-a]pyridine-6-carboxamide]",50 to 75
13,"COc1cc2nc(C)cn2cc1C(=O)Nc1ccc(N2CCC3(CCNC3)C2)cc1F (stereo not shown) [Compound 145, N-(2-fluoro-4-(2,7-diazaspiro[4.4]nonan-2-yl)phenyl)-7-methoxy-2-methylimidazo[1,2-a]pyridine-6-carboxamide]",< 50
14,"COc1cc2nc(C)cn2cc1C(=O)Nc1ccc(N2CCC3(CCCN3)C2)cc1F (stereo not shown) [Compound 146, N-(2-fluoro-4-(1,7-diazaspiro[4.4]nonan-7-yl)phenyl)-7-methoxy-2-methylimidazo[1,2-a]pyridine-6-carboxamide]",< 50
15,"COc1cc2nc(C)cn2cc1C(=O)Nc1ccc(N2C3CCNCC2CC3)cc1F (stereo not shown) [Compound 148, N-(4-(3,9-diazabicyclo[4.2.1]nonan-9-yl)-2-fluorophenyl)-7-methoxy-2-methylimidazo[1,2-a]pyridine-6-carboxamide]",< 50
16,"CCNC1CCN(c2ccc(NC(=O)c3cn4cc(C)nc4cc3OC)c(F)c2)CC1 [Compound 149, N-(4-(4-(ethylamino)piperidin-1-yl)-2-fluorophenyl)-7-methoxy-2-methylimidazo[1,2-a]pyridine-6-carboxamide]",> 75
17,"COc1cc2nc(C)cn2cc1C(=O)Nc1ccc(N2CCC3(CC2)CNC3)cc1F [Compound 150, N-(2-fluoro-4-(2,7-diazaspiro[3.5]nonan-7-yl)phenyl)-7-methoxy-2-methylimidazo[1,2-a]pyridine-6-carboxamide]",< 50
18,"CCNC1CCCN(c2ccc(NC(=O)c3cn4cc(C)nc4cc3OC)c(F)c2)C1 (stereo not shown) [Compound 151, N-(4-(3-(ethylamino)piperidin-1-yl)-2-fluorophenyl)-7-methoxy-2-methylimidazo[1,2-a]pyridine-6-carboxamide]",< 50
19,"COc1cc2nc(C)cn2cc1C(=O)Nc1ccc(N2CCC3(CNC3)C2)cc1F [Compound 152, N-(2-fluoro-4-(2,6-diazaspiro[3.4]octan-6-yl)phenyl)-7-methoxy-2-methylimidazo[1,2-a]pyridine-6-carboxamide]",< 50
20,"COc1cc2nc(C)cn2cc1C(=O)Nc1ccc(N2CCNCC(O)C2)cc1F (stereo not shown) [Compound 153, N-(2-fluoro-4-(6-hydroxy-1,4-diazepan-1-yl)phenyl)-7-methoxy-2-methylimidazo[1,2-a]pyridine-6-carboxamide]",< 50
21,"COc1cc2nc(C)cn2cc1C(=O)Nc1ccc(N2CCNC(CF)C2)cc1F (stereo not shown) [Compound 159, N-(2-fluoro-4-(3-(fluoromethyl)piperazin-1-yl)phenyl)-7-methoxy-2-methylimidazo[1,2-a]pyridine-6-carboxamide]",50 to 75

# Same assay, conditions: Homo sapiens; mini-gene firefly luciferase reporter in HEK293 cells
row,IC50 [µM],SMILES
1,1 to 10,"Cc1cn2cc(C(=O)Nc3ccc(N4CCNCC4)cn3)c(OC(C)C)cc2n1 [Compound 129, 7-isopropoxy-2-methyl-N-(5-(piperazin-1-yl)pyridin-2-yl)imidazo[1,2-a]pyridine-6-carboxamide hydrochloride]"
2,< 1,"CCOc1cc2nc(C)cn2cc1C(=O)Nc1ccc(N2CCNCC2)cn1 [Compound 130, 7-ethoxy-2-methyl-N-(5-(piperazin-1-yl)pyridin-2-yl) imidazo[1,2-a]pyridine-6-carboxamide hydrochloride]"
3,< 1,"COc1cc2nc(C)cn2cc1C(=O)Nc1ccc(N2CCC3(CCCN3)CC2)cc1F [Compound 132, N-(2-fluoro-4-(1,8-diazaspiro[4.5]decan-8-yl)phenyl)-7-methoxy-2-methylimidazo[1,2-a]pyridine-6-carboxamide]"
4,< 1,"COc1cc2nc(C)cn2cc1C(=O)Nc1ccc(N2CCC3(CC2)COCCN3)cc1F [Compound 133, N-(2-fluoro-4-(4-oxa-1,9-diazaspiro[5.5]undecan-9-yl)phenyl)-7-methoxy-2-methylimidazo[1,2-a]pyridine-6-carboxamide]"
5,< 1,"COc1cc2nc(C)cn2cc1C(=O)Nc1ccc(N2[C@H](C)CNC[C@@H]2C)cc1F [Compound 154, N-(4-((28,6R)-2,6-dimethylpiperazin-1-yl)-2-fluorophenyl)-7-methoxy-2-methylimidazo[1,2-a]pyridine-6-carboxamide]"
6,< 1,"COc1cc2nc(C)cn2cc1C(=O)Nc1ccc(N2CC3CNC(C3)C2)cc1F (stereo not shown) [Compound 155, N-(4-(3,6-diazabicyclo[3.2.1]octan-3-yl)-2-fluorophenyl)-7-methoxy-2-methylimidazo[1,2-a]pyridine-6-carboxamide]"
7,< 1,"COc1cc2nc(C)cn2cc1C(=O)Nc1ccc(N2CCNC(C)C2C)cc1F (stereo not shown) [Compound 157, N-(4-(2,3-dimethylpiperazin-1-yl)-2-fluorophenyl)-7-methoxy-2-methylimidazo[1,2-a]pyridine-6-carboxamide]"
8,< 1,"COc1cc2nc(C)cn2cc1C(=O)Nc1ccc(N2CCNCCC2C)cc1F (stereo not shown) [Compound 158, N-(2-fluoro-4-(7-methyl-1,4-diazepan-1-yl)phenyl)-7-methoxy-2-methylimidazo[1,2-a]pyridine-6-carboxamide]"
9,< 1,"COc1cc2nc(C)cn2cc1C(=O)Nc1ccc(N2CCNC(C)CC2)cc1F (stereo not shown) [Compound 160, N-(2-fluoro-4-(5-methyl-1,4-diazepan-1-yl)phenyl)-7-methoxy-2-methylimidazo[1,2-a]pyridine-6-carboxamide]"

row,SMILES,IC50 [µM]
1,"COc1cc2nc(C)cn2cc1C(=O)Nc1ccc(N2CC3CCCC(C2)N3)cc1F [Compound 147, N-(4-(3,9-diazabicyclo[3.3.1]nonan-3-yl)-2-fluorophenyl)-7-methoxy-2-methylimidazo[1,2-a]pyridine-6-carboxamide]",< 1
